Reference: patent US20070110758A1, “Method for inhibiting bacterial colonisation” (ADELAIDE RESERCH & INNOVATION PTY LTD, priority 2003, published 2007)

Tested on: H. pylori
Test: Level of H. pylori colonisation in gastric body, transitional zone and antrum of inoculated mice, counted on Giemsa stained sections
Format: in vivo, Helicobacter pylori
Conditions: Example 6; N-acetyl cysteine alone; FIGS. 3, 4
Description: Female C57BL/6 mice, approximately six week old, were orally inoculated with Sydney strain 1 (SS1) of H. pylori (1.0×10^8 bacteria delivered in 0.1 ml of 0.9% (w/v) sodium chloride) according to Lee et al., (1997) Gastroenterology 112:1386-1397 (the entire disclosure of which is incorporated herein by reference) and treated twice daily by oro-gastric gavage for 21 days, starting 4 weeks after inoculation (Scheme 1 below). Animals were housed in the Animal House at the Women's and Children's Hospital. All animals were fed mouse chow and water ad libitum. [drawing 1] […]
The level of colonisation in the gastric body, transitional zone and antrum of mice inoculated with H. pylori was counted in 9-12 consecutive fields on Giemsa stained sections.
To assess the effect of the mucolytic agent N-acetyl cysteine […] on colonisation, the level of colonisation in the gastric body, transitional zone and antrum in mice inoculated with H. pylori was counted in 9-12 consecutive fields on Giemsa stained sections.
The level of colonisation in the gastric body, transitional zone and antrum in mice inoculated with H. pylori was counted in 9-12 consecutive fields on Giemsa stained sections.
Colonisation (Giemsa staining): The level of colonisation in the gastric body, transitional zone and antrum was counted in 9-12 consecutive fields on stained sections. […]

With CC(=O)N[C@@H](CS)C(=O)O [NAC, N-acetyl cysteine] as the compound, how does the level of colonisation read?
The level of colonisation was “no effect”.
